Test system: HO-1 protein
Assay: Renal cortical HO-1 protein (ELISA) after FeS, SnPP, B12
Assay type: in vivo, CD-1 mice
Details: 4 hrs and 18 hrs after IV injection
Experimental: Effects of FeS, SnPP, and B12 on renal cortical induction of heme oxygenase 1(HO-1). The following experiments assessed the effects of FeS, SnPP, and B12 on the possible induction of the cytoprotective protein HO-1. To this end, mice were injected with each of these agents, as noted above. Either 4 or 18 hrs later, they were anesthetized and the kidneys were removed through a midline abdominal incision. The renal cortices were dissected on ice and then extracted for protein and mRNA. The samples were then assayed for HO-1 protein by ELISA, and HO-1 mRNA by RT-PCR, factored by GAPDH levels. Five normal mice provided control values.

cyanocobalamin [B12]
HO-1 protein increases (FIG. 21): marked HO-1 protein increases within 4 hrs and persists for 18 hrs

— patent publication US20190358242A1, “COMPOSITIONS, KITS, AND METHODS TO INDUCE ACQUIRED CYTORESISTANCE USING STRESS PROTEIN INDUCERS” (FRED HUTCHINSON CANCER RESEARCH CENTER, priority 2017, published 2019)
